Experimental data: US6399745B1, “Use of leptin antagonists for treating insulin resistance in type II diabetes” (Aventis Pharma Deutschland GmbH, priority 1996, dated 2002)

Tested on: isolated rat adipocytes
Assay: Glucose transport (2-deoxyglucose uptake) in isolated rat adipocytes after primary culture with leptin, basal and insulin-stimulated
Assay type: cell-based
Procedure: Adipocytes were prepared from the epididymal fat tissue of male Wistar rats (140-160 g, Hoechst AG breeding station, Kastengrund) by means of digesting with collagenase (Rodbell, 1964, J. Biol. Chem. 239, 375-380), washed twice with KRH (25 mM Hepes free acid, 25 mM Hepes sodium salt, 80 mM NaCl, 1 mM MgSO4, 2 mM CaCl2, 6 mM KCl, 1 mM sodium pyruvate, 0.5% BSA) and once with DMEM (Dulbecco's minimal essential medium), supplemented with 5.5 mM glucose, 20 mM Hepes (pH 7.4), 2% fetal calf serum, 1% BSA, 50 U of penicillin/ml, […], by means of flotation (800×g, 1 min, in small plastic tubes), and finally diluted to a volume of 20 ml of DMEM/g wet weight of the fat tissue (cell titer: approximately 2.5×10^5 cells/ml).
The adipocytes were incubated, at 37° C. for 15-18 h under an atmosphere of 5% CO2 and with gentle shaking, in supplemented (see above) DMEM in the presence of 100 nM phenylisopropyladenosine (4 ml of DMEM to 1 ml of cells, cell titer approximately 5×10^4 cell/ml, in 50 ml sterile polypropylene: tubes) and in the presence or absence of leptin. The adipocytes were subsequently washed three times with cold KRH and adjusted to a cell titer of approximately 3×10^5 cells/ml by adding 0.7 ml of glucose-free KRH to the cell layer which remained after the complete removal of the last washing solution. In order to determine the capacity of the adipocytes to be stimulated by insulin, and their sensitivity to insulin, following the primary culture, the washed adipocytes were incubated at 37° C. for 20 min in the absence or presence of human insulin (0.02-50 nM final concentration), and glucose transport or lipogenesis was then measured.
Glucose transport was measured as the specific uptake of the non-metabolizable glucose analog 2-deoxyglucose (Muller and Wied, 1993, Diabetes 42, 1852-1867). 50 μl of the adipocyte suspension in KRH, which suspension had or had not been preincubated with insulin (see above), were incubated, at 25° C. for 5 min, with 50 μl of KRH which was supplemented with 2-deoxy-D-[2,6-^3H]glucose (0.5 μCi, 0.2 mM). The incubation mixtures were transferred to thin soft-plastic centrifuge tubes, each of which already contained 200 μl of dinonyl phthalate oil, and immediately centrifuged (2,000×g, 30 sec). Using special shears, the tubes were severed within the oil layer (in the vicinity of the upper edge) and the upper halves of the tubes, together with the cell layers which had in each case been floated onto the oil layer, were transferred to scintillation vials. After 10 ml of scintillation fluid (water-based) had been added, the radioactivity associated with the cells was measured. In order to correct for 2-deoxyglucose which had become enclosed in the cell interstices, or had diffused into the cells, in a non-specific manner, the radioactivity of cells which had been preincubated with cytochalasin B (20 μM) was subtracted from the total cell-associated radioactivity of each individual incubation mixture (Gliemann et al., 1972, Biochim. Biophys. Acta 286, 1-9).
Isolated rat adipocytes were incubated for 15 h in primary culture in the presence or absence of increasing concentrations of leptin. […] The stimulation factor for insulin was calculated as the ratio between insulin-stimulated and basal activities. Each value represents the mean from two independent adipocyte cultures with activity being determined two or three times in each case.
The cells were then washed and tested for the stimulation of glucose transport by differing concentrations of insulin. Glucose transport activity is given as a “dpm value” of the 2deoxy-[^3H]glucose which is specifically associated with the cells. Each value represents the mean from two independent adipocyte cultures with the activity being determined four times in each case.

Insulin: human insulin used to stimulate adipocytes [reference compound]
stimulation of glucose transport by insulin (insulin 10 nM): approximately 14 fold
insulin concentration at which effects can already be detected in vitro (insulin dose/effect curves, glucose transport): 0.1 to 0.2 nM
glucose transport, uptake of 3H-labeled 2-deoxyglucose (no leptin, insulin 0.02 nM): 784 dpm
glucose transport, uptake of 3H-labeled 2-deoxyglucose (no leptin, insulin 0.05 nM): 1285 dpm
glucose transport, uptake of 3H-labeled 2-deoxyglucose (no leptin, insulin 0.1 nM): 2406 dpm
glucose transport, uptake of 3H-labeled 2-deoxyglucose (no leptin, insulin 0.2 nM): 4762 dpm
glucose transport, uptake of 3H-labeled 2-deoxyglucose (no leptin, insulin 0.5 nM): 6976 dpm
glucose transport, uptake of 3H-labeled 2-deoxyglucose (no leptin, insulin 1 nM): 7981 dpm
glucose transport, uptake of 3H-labeled 2-deoxyglucose (no leptin, insulin 2 nM): 8576 dpm
glucose transport, uptake of 3H-labeled 2-deoxyglucose (no leptin, insulin 5 nM): 8956 dpm
glucose transport, uptake of 3H-labeled 2-deoxyglucose (no leptin, insulin 10 nM): 9064 dpm
glucose transport, uptake of 3H-labeled 2-deoxyglucose (no leptin, insulin 50 nM): 9072 dpm
Glucose Transport, stimulation factor for insulin (stimulated/basal) (no leptin, Insulin concentration: 5 nM): 13.4
